Tested on: patients with type 2 diabetes at high vascular risk
Test: Cardiovascular and Renal Outcomes Trial: linagliptin 5 mg once daily vs placebo on top of standard of care
Assay type: in vivo
Conditions: for Hazard ratio for hospitalised heart failure: vs placebo
Experimental: The effect of linagliptin on cardiovascular risk in adult patients with type 2 diabetes mellitus and with increased CV risk evidenced by a history of established macrovascular or renal disease (e.g. as defined herein) was evaluated in a multi-center, multi-national, randomized, double-blind parallel group trial. The trial compared the risk of experiencing a major adverse cardiovascular event (MACE) between linagliptin and placebo when these were added to and used concomitantly with standard of care treatments for diabetes (HbA1c), cardiovascular risk factors and renal disease.
The primary endpoint in this trial was the time to first occurrence of three point (3P) MACE. A major adverse cardiac event was defined as a cardiovascular death or a nonfatal myocardial infarction (MI) or a nonfatal stroke. The statistical analysis plan tested for non-inferiority for the occurrence of (3P) MACE. […] The secondary endpoint was a renal composite, defined as renal death or sustained end stage renal disease or sustained decrease of 40% or more in eGFR.
Type 2 diabetes patient with insufficient glycemic control (naïve or pre-treated with any antidiabetic background medication, excluding treatment with GLP-1 receptor agonists, DPP-4inhibitors or SGLT-2 inhibitors if ≥consecutive 7 days, e.g. having HbA1c 6.5-10%), and high risk of cardiovascular events, e.g. defined by: • albuminuria (micro or macro) and previous macrovascular disease: e.g. defined according to Condition I as indicated below; • and/or • impaired renal function: e.g. as defined according to Condition II as indicated below;
Background and aims: People with type 2 diabetes (T2D) are at increased risk for hospitalization for heart failure (hHF), particularly in the setting of concomitant cardiovascular (CV) and/or kidney disease. […] Here we present analyses of HF outcomes with the DPP-4 inhibitor linagliptin (LINA) vs. placebo (PBO) from a Cardiovascular and Renal Outcomes Trial assessing cardiovascular safety and renal microvascular outcome in patients with type 2 diabetes at high vascular risk, a large CV outcomes trial that enrolled participants with T2D at high risk for hHF due to concomitant CV and/or chronic kidney disease. Materials and methods: People with T2D and concomitant CV and/or kidney disease were randomized to receive LINA 5 mg, or PBO once daily (1:1), on top of standard of care. All hHF, CV outcomes, and deaths were centrally adjudicated, with individual and composite HF-related outcomes analyses comparing LINA vs. placebo. Investigator-reported HF-related adverse events, whether or not confirmed by adjudication, were also analyzed. A Cox proportional hazards model adjusting for region and history of HF was used for analyses of first events. Recurrent hHF events were analyzed using a negative binomial model.
Methods: The present Cardiovascular and Renal Outcomes Trial randomized people with T2D and i) concomitant CV disease with UACR >30 mg/g or ii) prevalent CKD (i.e. GFR <45 ml/min/1.73m2 and/or UACR >200 mg/g) to receive the DPP-4 inhibitor linagliptin (5 mg) or placebo once daily in a double-blind fashion. The primary CV endpoint was 3P-MACE, with a key secondary kidney endpoint (adjudicated ESKD, renal death, or sustained ≥40% decrease in eGFR from baseline) and other renal outcomes (including albuminuria and eGFR slope) also assessed. Subgroups were assessed by baseline kidney function (eGFR ≥/<45 ml/min/1.73m2and eGFR ≥/<30, 45 or 60 ml/min/1.73m2).
Adults with type 2 diabetes, HbA1c 6.5-10.0% inclusive, and high CV risk were eligible for inclusion. […] Macrovascular disease eligibility criteria was based on documented and confirmed history of myocardial infarction, coronary artery disease, stroke, carotid artery disease, or peripheral artery disease. Participants with end-stage kidney disease (ESKD), defined as eGFR <15 or requiring maintenance dialysis, were excluded.

[1] = Duration of type 2 diabetes ≥10 years
[2] = Established macrovascular disease and albuminuria No
[3] = Established macrovascular disease and albuminuria Yes
[4] = Estimated glomerular filtration rate <30 mL/min/1.73 m^2
[5] = Estimated glomerular filtration rate ≥30 to <45 mL/min/1.73 m^2
[6] = Estimated glomerular filtration rate ≥45 to <60 mL/min/1.73 m^2
[7] = Estimated glomerular filtration rate ≥60 mL/min/1.73 m^2

## CC#CCn1c(N2CCC[C@@H](N)C2)nc2c1c(=O)n(Cc1nc(C)c3ccccc3n1)c(=O)n2C [Linagliptin, 1-[(4-methyl-quinazolin-2-yl)methyl]-3-methyl-7-(2-butyn-1-yl)-8-(3-(R)-amino-piperidin-1-yl)-xanthine]
[1]
  3-point MACE: patients with event/patients analyzed: 316/2277
  Key secondary kidney outcome: hazard ratio vs placebo: 0.97
  Key secondary kidney outcome: patients with event/patients analyzed: 230/2277
  Patients with event/patients analysed, hospitalised heart failure: 149/2277
  Hazard ratio for hospitalised heart failure: 0.89
[2]
  3-point MACE: hazard ratio vs placebo: 1.13
  3-point MACE: patients with event/patients analyzed: 198/1486
  Key secondary kidney outcome: hazard ratio vs placebo: 1.03
  Key secondary kidney outcome: patients with event/patients analyzed: 215/1486
  Patients with event/patients analysed, hospitalised heart failure: 96/1486
  Hazard ratio for hospitalised heart failure: 0.87
[3]
  3-point MACE: hazard ratio vs placebo: 0.94
  3-point MACE: patients with event/patients analyzed: 236/2008
  Key secondary kidney outcome: hazard ratio vs placebo: 1.11
  Key secondary kidney outcome: patients with event/patients analyzed: 112/2008
  Patients with event/patients analysed, hospitalised heart failure: 113/2008
  Hazard ratio for hospitalised heart failure: 0.93
Established renal disease No
  3-point MACE: hazard ratio vs placebo: 0.98
  3-point MACE: patients with event/patients analyzed: 120/1385
  Key secondary kidney outcome: hazard ratio vs placebo: 1.20
  Key secondary kidney outcome: patients with event/patients analyzed: 38/1385
  Patients with event/patients analysed, hospitalised heart failure: 47/1385
  Hazard ratio for hospitalised heart failure: 1.19
Established renal disease Yes
  3-point MACE: hazard ratio vs placebo: 1.04
  3-point MACE: patients with event/patients analyzed: 314/2109
  Key secondary kidney outcome: hazard ratio vs placebo: 1.00
  Key secondary kidney outcome: patients with event/patients analyzed: 289/2109
  Patients with event/patients analysed, hospitalised heart failure: 162/2109
  Hazard ratio for hospitalised heart failure: 0.84
[4]
  Patients with event/patients analysed, hospitalised heart failure: 59/516
  Hazard ratio for hospitalised heart failure: 0.94
[5]
  Patients with event/patients analysed, hospitalised heart failure: 76/994
  Hazard ratio for hospitalised heart failure: 0.85
[6]
  Patients with event/patients analysed, hospitalised heart failure: 38/690
  Hazard ratio for hospitalised heart failure: 1.06
[7]
  Patients with event/patients analysed, hospitalised heart failure: 36/1294
  Hazard ratio for hospitalised heart failure: 0.88
Ethnicity Hispanic/Latino
  3-point MACE: hazard ratio vs placebo: 1.13
  3-point MACE: patients with event/patients analyzed: 143/1227
  Key secondary kidney outcome: hazard ratio vs placebo: 1.10
  Key secondary kidney outcome: patients with event/patients analyzed: 156/1227
  Patients with event/patients analysed, hospitalised heart failure: 58/1227
  Hazard ratio for hospitalised heart failure: 0.96
Ethnicity Not Hispanic/Latino
  3-point MACE: hazard ratio vs placebo: 0.97
  3-point MACE: patients with event/patients analyzed: 291/2267
  Key secondary kidney outcome: hazard ratio vs placebo: 0.99
  Key secondary kidney outcome: patients with event/patients analyzed: 171/2267
  Patients with event/patients analysed, hospitalised heart failure: 151/2267
  Hazard ratio for hospitalised heart failure: 0.87
Gender Female
  3-point MACE: hazard ratio vs placebo: 0.96
  3-point MACE: patients with event/patients analyzed: 152/1346
  Key secondary kidney outcome: hazard ratio vs placebo: 0.92
  Key secondary kidney outcome: patients with event/patients analyzed: 117/1346
  Patients with event/patients analysed, hospitalised heart failure: 74/1346
  Hazard ratio for hospitalised heart failure: 0.97
Gender Male
  3-point MACE: hazard ratio vs placebo: 1.06
  3-point MACE: patients with event/patients analyzed: 282/2148
  Key secondary kidney outcome: hazard ratio vs placebo: 1.12
  Key secondary kidney outcome: patients with event/patients analyzed: 210/2148
  Patients with event/patients analysed, hospitalised heart failure: 135/2148
  Hazard ratio for hospitalised heart failure: 0.87
Glycated haemoglobin <8.0%
  Patients with event/patients analysed, hospitalised heart failure: 107/1915
  Hazard ratio for hospitalised heart failure: 0.78
Glycated haemoglobin ≥8.0%
  Patients with event/patients analysed, hospitalised heart failure: 102/1579
  Hazard ratio for hospitalised heart failure: 1.05
Glycated hemoglobin <8.0%
  3-point MACE: hazard ratio vs placebo: 0.90
  3-point MACE: patients with event/patients analyzed: 229/1915
  Key secondary kidney outcome: hazard ratio vs placebo: 1.13
  Key secondary kidney outcome: patients with event/patients analyzed: 186/1915
Glycated hemoglobin ≥8.0%
  3-point MACE: hazard ratio vs placebo: 1.20
  3-point MACE: patients with event/patients analyzed: 205/1579
  Key secondary kidney outcome: hazard ratio vs placebo: 0.94
  Key secondary kidney outcome: patients with event/patients analyzed: 141/1579
History of heart failure No
  3-point MACE: hazard ratio vs placebo: 1.02
  3-point MACE: patients with event/patients analyzed: 275/2542
  Key secondary kidney outcome: hazard ratio vs placebo: 1.07
  Key secondary kidney outcome: patients with event/patients analyzed: 252/2542
  Patients with event/patients analysed, hospitalised heart failure: 96/2542
  Hazard ratio for hospitalised heart failure: 0.92
History of heart failure Yes
  3-point MACE: hazard ratio vs placebo: 1.01
  3-point MACE: patients with event/patients analyzed: 159/952
  Key secondary kidney outcome: hazard ratio vs placebo: 0.95
  Key secondary kidney outcome: patients with event/patients analyzed: 75/952
  Patients with event/patients analysed, hospitalised heart failure: 113/952
